Experimental findings from patent US6380255B1, “Treatment for dermal skin atrophy using thyroid hormone compounds or thyroid hormone-like compounds” (Karo Bio AB, priority 1995, dated 2002) are described below.

Structures are written as SMILES. Where “and” joins values, the source holds several entries; their conditions need not be identical. Equal entries are not always repeated.

The data set concerns Balb/c mice. The data set is described as follows: Prevention of glucocorticoid (betamethasone)-induced dermal atrophy in normal mice, dermis thickness in Van Gieson stained biopsies. In kind it is in vivo, mouse. Conditions: for Thickness of dermis (mm) in 5 low power fields (×10) / Thickness of dermis, mean (mm): one week. From the text: Normal Balb/c mice were used for the experiments. […] Therefore each averaged measurement represents 25 determinations.
In FIGS. 1-3, the arrows show the dermal layer which is predominantly collagen fibers.

The mark [1] stands for this setting: Bet. 0.2 mM + 0.0008 mM test compound, topical daily.
Where [2] appears, read: Bet. 0.2 mM + 0.008 mM test compound, topical daily.
Setting [3] is: Bet. 0.2 mM + 0.08 mM test compound, topical daily.
[4] abbreviates: Bet. 0.2 mM + 0.8 mM test compound, topical daily.

Consider `O=C(O)CCc1cc(I)c(Oc2ccc(O)c(I)c2)c(I)c1` [TriProp], for which the “Thickness of dermis (mm) in 5 low power fields (×10)” value (“Thickness of dermis (mm)” for short) is, setting by setting: under setting [1], 0.41 mm and 0.40 mm and 0.46 mm; under setting [2], 0.45 mm and 0.50 mm and 0.40 mm and 0.42 mm and 0.48 mm; under setting [3], 0.50 mm and 0.48 mm and 0.47 mm and 0.44 mm; under setting [4], 0.50 mm and 0.45 mm and 0.47 mm and 0.48 mm and 0.52 mm. For the same compound, the “Thickness of dermis, mean (mm)” value reads like this: under setting [1], 0.42 mm; under setting [2], 0.45 mm; under setting [3], 0.48 mm; under setting [4], 0.48 mm.
Regarding `C[C@H]1C[C@H]2[C@@H]3CCC4=CC(=O)C=C[C@]4(C)[C@@]3(F)[C@@H](O)C[C@]2(C)[C@@]1(O)C(=O)CO` [Betamethasone, betamethasone, reference compound], the “Thickness of dermis, mean (mm)” value is, setting by setting: (Bet. 0.2 mM + placebo cr. (hydrophilic cream)) 0.40 mm; (Betamethasone 0.2 mM alone, 100 μl topical daily) 0.37 mm and 0.42 mm. For the same compound, the “Thickness of dermis (mm)” value (Bet. 0.2 mM + placebo cr. (hydrophilic cream), listed as Bet.) was 0.40 mm and 0.42 mm and 0.38 mm and 0.39 mm. In addition, the “Appearance of dermis in biopsy micrograph (FIG. 1)” value (betamethasone alone for one week) is listed as “very thinned”.
As to `O=C(O)Cc1cc(I)c(Oc2ccc(O)c(I)c2)c(I)c1` [TriAc, [4-(4-hydroxy-3-iodophenoxy)-3,5-diiodophenyl]acetic acid], the “Thickness of dermis (mm)” value is 0.72 mm and 0.82 mm and 0.84 mm and 0.76 mm (0.8 mM test compound alone (no betamethasone)); 0.40 mm and 0.36 mm and 0.38 mm under setting [1]; 0.40 mm and 0.44 mm under setting [2]. Besides, the “Thickness of dermis, mean (mm)” value came out at 0.38 mm under setting [1] and 0.45 mm under setting [2]. The “Appearance of dermis in biopsy micrograph (FIG. 3)” value (Triac alone for one week) was “very dense and thicker than that shown in FIG. 2”. For the same compound, the “Concentration at which the effect on betamethasone-induced atrophy saturates” value (range 0.0008 to 8 mM) is “approximately 0.8 mM”.
With `CC(C)c1cc(Oc2c(Br)cc(Cc3nnn[nH]3)cc2Br)ccc1O` [KB-067, 4-[2,6-dibromo-4-(1H-tetrazol-5-ylmethyl)-phenoxy]-2-isopropyl-phenol], the “Thickness of dermis (mm)” value under setting [1] is 0.42 mm and 0.39 mm and 0.40 mm; the “Thickness of dermis (mm)” value under setting [2] was 0.40 mm and 0.39 mm and 0.41 mm; the “Thickness of dermis (mm)” value under setting [3] is 0.40 mm and 0.41 mm and 0.39 mm; the “Thickness of dermis (mm)” value under setting [4] was 0.45 mm and 0.46 mm and 0.47 mm and 0.48 mm. Moreover, the “Thickness of dermis, mean (mm)” value reads like this: under setting [1], 0.40 mm; under setting [2], 0.40 mm; under setting [3], 0.40 mm; under setting [4], 0.46 mm.
In the case of `OCc1cc(I)c(Oc2ccc(O)c(I)c2)c(I)c1` [KB-026, 4-(4-hydroxymethyl-2,6-diiodophenoxy)-2-iodo-phenol], the “Thickness of dermis (mm)” value was 0.40 mm and 0.41 mm and 0.42 mm under setting [1]; 0.45 mm and 0.42 mm and 0.46 mm and 0.44 mm under setting [2]; 0.44 mm and 0.50 mm and 0.49 mm and 0.46 mm under setting [3]; 0.50 mm and 0.52 mm and 0.48 mm and 0.51 mm under setting [4]. The “Thickness of dermis, mean (mm)” value under setting [1] is 0.41 mm; the “Thickness of dermis, mean (mm)” value under setting [2] is reported as 0.44 mm; the “Thickness of dermis, mean (mm)” value under setting [3] was 0.48 mm; the “Thickness of dermis, mean (mm)” value under setting [4] was 0.50 mm.
